This is an account of results in patent US5344841A, “Bis-(hydroxylakylamino)-anthraquinone inhibitors of protein kinase C” (Sphinx Pharmaceuticals Corporation, priority 1992, dated 1994).

For experiment [1], the system named is 8226/MT Mitoxantrone resistant line of 8226 cells. Nature of the experiment: Human tumor growth inhibition, 3H-thymidine incorporation, 8226/MT. On the technique in general: Uptake of a labelled nucleoside into DNA is a usual measure of proliferation.
In experiment [2] the test system is 8226/ADR adriamycin resistant line of 8226 cells. Nature of the experiment: Human tumor growth inhibition, 3H-thymidine incorporation, 8226/ADR. To be noted: 3H-thymidine uptake. The experiment is classed as cell-based.
For experiment [3], the system named is MCF-7 human breast tumor cell line. Nature of the experiment: Human tumor growth inhibition, 3H-thymidine incorporation, MCF-7. The experiment is classed as cell-based. The conditions noted are these: 3H-thymidine uptake; read-out: IC50 MCF-7. The source says: (§1) MCF-7 a human breast tumor cell line, and MCF-7/ADR an adriamycin resistant line of MCF-7 cells were obtained from the National Cancer Institute, Frederick, Md. NHEK a human keratinocyte cell line was obtained from Clonetic Corp., San Diego, Calif. 8226 a human myeloma cell line, 8226/MT a Mitoxantrone resistant line of 8226 cells, and 8226 ADR an adriamycin resistant line of 8226 cells were obtained from Dr. Bill Dalton, Arizona Cancer Center, Tuscon, Ariz.
(§2) Human tumor cells are trypsinized (0.05% trypsin, GIBCO), counted with a hemacytometer and seeded at a concentration of 10,000 cells/well in a 96 well microtiter plate. After allowing cells to attach to the surface overnight, the culture medium is aspirated and replaced with 100 μl of fresh medium. Test agents are diluted to determine dose response at 2× final concentration and added in quadruplicate at 100 μl/well to bring the total volume of each well to 200 μl. The microtiter plate is then incubated at 37° C. 5% CO2 overnight (18-24 hrs) before ^3 H-thymidine is added at a concentration of 0.5 μCi/well in 50 μl culture medium. The plate is incubated again for 4 hrs under the same conditions as above. Supernatant is then aspirated and 50 μl trypsin (0.05%, GIBCO) is added to each well. Cells are checked microscopically to determine detachment from surfaces, and plates are then harvested with a cell harvester (PHD, Cambridge Technology, Inc.) Filter papers corresponding to wells are placed in scintillation vials and counted to determine the amount of ^3 H-thymidine incorporated by the cells. Test agent response is compared to a positive control of cell wells with culture media only to determine the IC50. IC50 is the concentration of test compound required to inhibit fifty percent of the incorporation of ^3 H-thymidine into proliferating cells not exposed to test agent. Uptake of ^3 H-thymidine is a standard test for measuring the metabolism of cells. Cells which are actively proliferating take up ^3 H-thymidine, whereas cells that are not proliferating take up ^3 H-thymidine at much slower rates or not at all. Test agents that inhibit the uptake of ^3 H-thymidine thus slow the growth of cells.

The target of experiment [4] is protein kinase C. The experiment in a line: Protein kinase C (PKC) inhibition assay (histone H1 phosphorylation). To be noted: rat brain PKC, histone H1 substrate. The experiment is classed as biochemical. Here is the method: The protein kinase C (PKC) assay is designed to duplicated the in vivo conditions required for protein kinase C function. Therefore, pH, salt and cofactor concentrations are similar to physiologic levels. Histone H1 (lysine rich) is used in the assay as the phosphorylation acceptor protein because it is readily available and serves as a good substrate for protein kinase C. The enzyme is prepared from rat brain and is purified to apparent homogeneity as determined by a single band on silver stained SDS-polyacrylamide. Studies on the mechanism of regulation of protein kinase C by phospholipids, DAG and Ca^+2 have been hampered by the physical properties of the lipid cofactors. In the screening assay, phosphatidylserine (PS) and DAG are cosonicated to form unilamellar and multilamellar vesicles. The concentration of lipids in the assay are suboptimal to maximize the detection potential of the assay for inhibitors. […] The assay is started with the addition of enzyme and stopped after 10 min by the addition of 25% trichloroacetic acid (TCA) and 1.0 mg/ml bovine serum albumin (BSA). The radioactive histone product is retained and washed on glass fiber filters that allow the unreacted ^32 P-ATP to pass through. The amount of phosphorylation is determined by the radioactivity measured in a scintillation counter. Controls are included in every assay to measure background activity in the absence of enzyme, activity in the absence of lipids and the maximum enzyme activity with saturating levels of the activator lipids.

Experiment [5] concerns MCF-7/ADR adriamycin resistant line of MCF-7 cells. Nature of the experiment: Human tumor growth inhibition, 3H-thymidine incorporation, MCF-7/ADR. The experiment is classed as cell-based. To be noted: NCI/ADR-RES, 3H-thymidine uptake.
For experiment [6] the test system is unchanged. The description is as above. To be noted: MCF-7/ADR vs MCF-7. Type of experiment: cell-based.
Excerpt: as §1, §2

For experiment [7], the system named is human neutrophils. The experiment in a line: Neutrophil superoxide anion (O2-) release assay, PMA-stimulated. To be noted: Homo sapiens, Neutrophil, PMA-stimulated O2- production. The experiment is classed as cell-based. Here is the method:
Neutrophils were isolated form whole blood collected from human volunteers. All reagent materials were obtained from Sigma Chemical Company with the exception of isotonic saline (Travenol Lab., Inc. Deerfield, Ill.) and lymphocyte separation medium (Organon Teknika, Durham, N.C.). Whole blood was drawn and mixed with sodium heparin (final conc. 10 units/ml) to prevent clotting. An equal volume of dextran (3.0%) in isotonic saline was added, mixed, and allowed to settle for 30 min to bind red blood cells (RBC). The supernatant was removed, underlayered with lymphocyte separation medium and centrifuged for 40 min at 400 xg in a centrifuge (Beckman GPR, Norcross, Ga.). […] The washed pellet was resuspended in 10 ml HBSS and placed on ice before counting on a hemacytometer. The neutrophil cell concentration is adjusted to 2×10^6 cells/ml with HBSS before adding 0.8 ml cells to 12×75 mm polypropylene test tubes (Fisher Scientific). Test agents are diluted to determine dose response and added at 10×final concentration at a volume of 0.1 ml/tube in duplicate. […] Tubes are then centrifuged at 900 xg for 10 min, 0.5 ml supernatant is removed and added to 0.5 ml H2 O in a microcuvette. Optical density (OD) of cytochrome c is read in a spectrophotometer (Shimadzu) at 550 nm. The ΔOD of cytochrome c is obtained between PMA-stimulated and non-stimulated tubes, and the dose responses of the test agents are compared to the positive controls (which contain HBSS in place of test agents). PMA stimulates O2^- production which reduces cytochrome c. Reducing cytochrome c increases its absorbance, and the change in OD of cytochrome c is proportional to the amount of O2^- produced by PMA stimulation. Inhibition of the O2^- burst by test compounds of the invention is seen as a reduction in the change in optical density. Inhibition is expressed as IC50 μM and is the amount of test compound that will inhibit fifty percent of the PMA-stimulated respiratory outburst, i.e. O2^- production.

Experiment [8] relates to 8226/ADR adriamycin resistant line of 8226 cells. The experiment in a line: Human tumor growth inhibition, 3H-thymidine incorporation, 8226/ADR. The experiment is classed as cell-based. The conditions noted are these: 8226/ADR vs 8226.
Excerpt: as §1, §2

The test system of experiment [9] is 8226 human myeloma cell line. The experiment in a line: Human tumor growth inhibition, 3H-thymidine incorporation, 8226. Type of experiment: cell-based. The conditions noted are these: 3H-thymidine uptake, read-out: IC50 8226.
Excerpt: as §1, §2

For experiment [10], the system named is MCF-7 human mammary carcinoma xenografts. The experiment in a line: MCF-7 human mammary carcinoma xenografts in athymic nude mice. Type of experiment: in vivo, mouse (human tumor xenograft). To be noted: FIG. 4. (In general: In xenograft studies the graft and the host belong to different species.)

pIC50: −log10 of the molar value.

For the compound `CCN(CC)CC(O)CNc1ccc(NCC2CO2)c2c1C(=O)c1ccccc1C2=O` (centres unmarked) [Compound 1b-1, 1-(3-diethylamino-2-hydroxypropylamino)-4-(2,3-epoxypropylamino)-9, 10-anthracenedione], the “Resistance Ratio (8226/MT)” value in experiment [1] (8226/MT vs 8226) is 0.13. The pIC50 was 8.10 in experiment [1] (Homo sapiens, read-out: IC50 8226/MT); 7.80 in [2]; 7.60 in experiment [3]; 3.96 in experiment [4]; 7.22 in experiment [5]; less than 4.60 in experiment [7]. The pIC50 in [9] is 7.22. Also, the “ratio of IC50 for 8226 cells to IC50 for 8226/MT cells” value in experiment [1] (text wording of ratio) is on record as 0.13. The “Resistance Ratio (IC50 MCF-7/ADR to IC50 MCF-7)” value in [6] is on record as 2.4. For the same compound, the “Resistance Ratio (8226/ADR)” value in experiment [8] stood at 0.26. Moreover, in experiment [10] (at stabilization), the “median tumor weight vs control mice (in words)” value was “significantly lower than the weight of the control mice”. Further, the “day at which tumor growth was stabilized” value in experiment [10] (iv, once every four days, five injections) is roughly 30 days. Also, the “day until which median tumor weight remained stable” value in experiment [10] (then tumor regrowth) is roughly 38 days.
